Measured values from paper PMC11212140, “Molecular Bidents with Two Electrophilic Warheads as a New Pharmacological Modality” (ACS Central Science, 2024).

Columns and labels:
MKK7 = molecular target: T1, MKK7 (Homo sapiens, UniProt O14733); assay: MKK7 binding, KdELECT assays (DiscoverX); conditions: KdELECT
T1 construct: purchased DiscoverX
T1 sequence (O14733 1-419): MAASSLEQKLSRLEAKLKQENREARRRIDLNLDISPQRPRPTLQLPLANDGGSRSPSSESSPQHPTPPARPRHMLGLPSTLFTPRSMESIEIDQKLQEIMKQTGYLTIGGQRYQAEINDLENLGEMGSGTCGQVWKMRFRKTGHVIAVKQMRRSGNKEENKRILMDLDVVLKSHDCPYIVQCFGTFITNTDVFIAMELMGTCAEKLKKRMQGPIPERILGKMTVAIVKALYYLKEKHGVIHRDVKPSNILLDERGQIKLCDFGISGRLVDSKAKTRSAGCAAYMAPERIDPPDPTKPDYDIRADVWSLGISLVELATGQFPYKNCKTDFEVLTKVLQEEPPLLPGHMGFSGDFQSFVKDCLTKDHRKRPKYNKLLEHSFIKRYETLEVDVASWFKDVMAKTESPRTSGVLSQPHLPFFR
Excerpt: Figure 2 ZNL-8162 is a molecular bident for MKK7. (A) Compound structures for MKK7-targeting molecular bident (ZNL-8162) and its relatives lacking one or both cysteine-reactive groups. (B) Covalent modeling for ZNL-8162 engagement of MKK7(PDB: 6YG3). (C) MS/MS spectrum of ZNL-8162 covalently modifying Cys218 and Cys276 of MKK7. Red and yellow circles indicate ions of type y for sequences marked (1) and (2), respectively. Blue circles indicate ions of b for sequence (1). *, carbamidomethyl cysteine, Δ, oxidized methionine. (D) MKK7 binding data were obtained from KdELECT assays (DiscoverX). Data are presented as mean ± s.d. of n = 2 biologically independent samples.
Table S2. […]

EGFR^L858R kinase domain = test system: T2, EGFR^L858R kinase domain; assay: Determining sites of probe modification by MS; format: biochemical; conditions: EGFR^L858R protein, mass spectrometry
T2 construct: purified recombinant EGFR^L858R kinase domain treated by the compounds; made in house
Excerpt: Covalent docking (CovDock in Schrodinger software suite) was used to predict binding modes and scores of designed bident and mono-valent molecules. Thorough mode was used for docking and top 5 poses for each molecule were inspected visually to identify the most likely binding conformation based on the known core scaffold binding mode. Hinge hydrogen bonds of the core scaffolds were used as constraints in docking calculations. […]
reactive residues, only one cysteine was specified for covalent bond formation during docking of […]
for bident molecules, a proper binding mode required the other warhead in close proximity with its intended reactive cysteine. To obtain the final predicted binding mode in Figure 2B, the pre-reaction cysteine and warhead were manually linked with proper chemical bond, and the complex was optimized using receptor-ligand complex optimization protocol in Schrodinger suite with default settings. The final optimized complex was compared against the original binding mode to ensure minimal changes to the ligand and receptor residue conformations. […]
EGFR protein was treated with indicated probe for 2 hours at 30 °C in 50 mM HEPES buffer 100 mM NaCl pH 7.5. […] Peptides were desalted by C18 and analyzed by nanoLC-MS using a Waters NanoAcquity UPLC (Waters, Milford, MA) interfaced to a Orbitrap QExactive HF mass spectrometer (ThermoFisher Scientific, San Jose, CA). […]

[1] = test system: panel of 468 human kinases; conditions: 1 μM
Protocol: KinomeScan profiling for ZNL-0056 at 1 μM against a panel of 468 human kinases. The results
for the binding interactions are reported as “% Ctrl”, where larger circles indicate stronger hits.
The selectivity score was defined as the ratio of the number of kinases inhibited to a specified
percentage versus the total number of kinases. For this experiment, specified percent inhibition

## C=CC(=O)Nc1cc(C(=O)Nc2nc3cccc(C)c3n2[C@@H]2CCCCN(C(=O)C=C)C2)cs1 [ZNL-0056]
MKK7
  Kd: 36 nM
EGFR^L858R kinase domain
  in vitro labeling of Cys797 and Cys775: high in vitro labeling efficacy
[1]
  selectivity score S (10): 0.05
